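In this assay, cells in 96-well plates receive the compound at five concentrations for 48 hours. Endpoints are linearly interpolated between the surrounding concentrations. The concentration for full growth arrest is given as TGI.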
Key:
Experiment in all cases: inhibition of tumour cell growth, NCI panel, 48 h
NCI-H522 lung = test system: NCI-H522 lung
NCI-H226 lung = test system: NCI-H226 lung
TK-10 renal = test system: TK-10 renal
OVCAR-8 ovarian = test system: OVCAR-8 ovarian
MDA-MB-435 = test system: MDA-MB-435
U251 CNS = test system: U251 CNS
UACC-62 melanoma = test system: UACC-62 melanoma
KM12 colon = test system: KM12 colon
MALME-3M melanoma = test system: MALME-3M melanoma
SF-295 CNS = test system: SF-295 CNS
NCI-H23 lung = test system: NCI-H23 lung
NCI-H460 lung = test system: NCI-H460 lung
HCT-15 colon = test system: HCT-15 colon
ACHN renal = test system: ACHN renal
HOP-62 NSCLC = test system: HOP-62 NSCLC
DU-145 prostate = test system: DU-145 prostate
EKVX NSCLC = test system: EKVX NSCLC
SW-620 colon = test system: SW-620 colon
RPMI-8226 leukemia = test system: RPMI-8226 leukemia
SN12C renal = test system: SN12C renal
M14 melanoma = test system: M14 melanoma
UO-31 renal = test system: UO-31 renal
HL-60(TB) leukemia = test system: HL-60(TB) leukemia
UACC-257 melanoma = test system: UACC-257 melanoma
RXF 393 renal = test system: RXF 393 renal
SK-MEL-28 melanoma = test system: SK-MEL-28 melanoma
SNB-19 CNS = test system: SNB-19 CNS
BT-549 breast = test system: BT-549 breast
OVCAR-3 ovarian = test system: OVCAR-3 ovarian
HCT-116 colon = test system: HCT-116 colon
MCF7 breast = test system: MCF7 breast
HOP-92 NSCLC = test system: HOP-92 NSCLC
MDA-MB-231 breast = test system: MDA-MB-231 breast
HT29 colon = test system: HT29 colon
MDA-N = test system: MDA-N
CCRF-CEM leukemia = test system: CCRF-CEM leukemia
PC-3 prostate = test system: PC-3 prostate
NCI/ADR-RES ovarian = test system: NCI/ADR-RES ovarian
COLO 205 colon = test system: COLO 205 colon
786-0 renal = test system: 786-0 renal
A498 renal = test system: A498 renal
CAKI-1 renal = test system: CAKI-1 renal
MOLT-4 leukemia = test system: MOLT-4 leukemia
IGROV1 ovarian = test system: IGROV1 ovarian
A549 NSCLC = test system: A549 NSCLC
OVCAR-4 ovarian = test system: OVCAR-4 ovarian
OVCAR-5 ovarian = test system: OVCAR-5 ovarian
K-562 leukemia = test system: K-562 leukemia
T-47D breast = test system: T-47D breast
SK-MEL-2 melanoma = test system: SK-MEL-2 melanoma
LOX IMVI melanoma = test system: LOX IMVI melanoma
SK-MEL-5 melanoma = test system: SK-MEL-5 melanoma
HS 578T breast = test system: HS 578T breast
SNB-75 CNS = test system: SNB-75 CNS
SK-OV-3 ovarian = test system: SK-OV-3 ovarian
SR leukemia = test system: SR leukemia
HCC-2998 colon = test system: HCC-2998 colon
SF-539 CNS = test system: SF-539 CNS

Measured: TGI

NC(=S)Nc1ccc(S(=O)(=O)Nc2ccc(S(N)(=O)=O)cc2)cc1
> 100 µM: NCI-H522 lung | NCI-H226 lung | TK-10 renal | OVCAR-8 ovarian | MDA-MB-435 | U251 CNS | UACC-62 melanoma | KM12 colon | MALME-3M melanoma | SF-295 CNS | NCI-H23 lung | NCI-H460 lung | HCT-15 colon | ACHN renal | HOP-62 NSCLC | DU-145 prostate | EKVX NSCLC | SW-620 colon | RPMI-8226 leukemia | SN12C renal | M14 melanoma | UO-31 renal | HL-60(TB) leukemia | UACC-257 melanoma | RXF 393 renal | SK-MEL-28 melanoma | SNB-19 CNS | BT-549 breast | OVCAR-3 ovarian | HCT-116 colon | MCF7 breast | HOP-92 NSCLC | MDA-MB-231 breast | HT29 colon | MDA-N | CCRF-CEM leukemia | PC-3 prostate | NCI/ADR-RES ovarian | COLO 205 colon | 786-0 renal | A498 renal | CAKI-1 renal | MOLT-4 leukemia | IGROV1 ovarian | A549 NSCLC | OVCAR-4 ovarian | OVCAR-5 ovarian | K-562 leukemia | T-47D breast | SK-MEL-2 melanoma | LOX IMVI melanoma | SK-MEL-5 melanoma

COc1cc2c(cc1OC)CCc1cc(OC)c(OC)cc1CC2
> 100 µM: NCI-H226 lung | TK-10 renal | OVCAR-8 ovarian | MDA-MB-435 | HS 578T breast | U251 CNS | UACC-62 melanoma | KM12 colon | MALME-3M melanoma | SF-295 CNS | NCI-H23 lung | NCI-H460 lung | HCT-15 colon | ACHN renal | HOP-62 NSCLC | DU-145 prostate | EKVX NSCLC | SW-620 colon | SN12C renal | M14 melanoma | SNB-75 CNS | UO-31 renal | UACC-257 melanoma | SK-MEL-28 melanoma | SK-OV-3 ovarian | SNB-19 CNS | BT-549 breast | SR leukemia | OVCAR-3 ovarian | HCT-116 colon | MCF7 breast | HOP-92 NSCLC | MDA-MB-231 breast | HT29 colon | MDA-N | CCRF-CEM leukemia | PC-3 prostate | NCI/ADR-RES ovarian | COLO 205 colon | 786-0 renal | A498 renal | CAKI-1 renal | MOLT-4 leukemia | IGROV1 ovarian | A549 NSCLC | OVCAR-4 ovarian | HCC-2998 colon | OVCAR-5 ovarian | K-562 leukemia | T-47D breast | SK-MEL-2 melanoma | LOX IMVI melanoma | SK-MEL-5 melanoma | SF-539 CNS

— PubChem BioAssay (NCI)
